Source: patent US12491188B2, “Small molecule PARG inhibitors and methods of use thereof” (Board of Regents, The University of Texas System, priority 2019, dated 2025)

Experiments:
[1] = system: PC3 cells; test: PAR / γH2AX immuno-staining and high content imaging after IR; type: cell-based, human; details: PC3, 2 h treatment, 7 Gy, 1 h recovery
Method: FIGS. 13a-g show PARGi sensitizes cells to ionizing radiation damage. (FIG. 13a) A low-resolution fixed intensity image-montage of the total cell numbers 3×(3×3) imaged per experimental group. A high level of PAR accumulation and γH2AX foci formation in cells exposed to PARGi. PC3 cells treated DMSO or PARG inhibitors (2120 or 2131) for 2 hours, irradiated 7Gy, recovered for 1 hour were fixed and immuno-stained with Poly(ADP)-Ribose (PAR, green), γH2AX (red) and Hoechst (blue) antibodies. Cells were analyzed with quantitative high content imaging. (FIGS. 13b-e) Quantitative analysis of PAR intensity (FIG. 13b), γH2AX intensities (FIG. 13c), the number of cells showing PAR/γH2AX co-localizations (FIG. 13d) and nucleus count for the total number of cells analyzed for each group (FIG. 13e). […] Cells were treated with 2131 for an hour followed by 7Gy ionizing radiation then allowed to recover for 2 h before total cell-lysate preparation and immunoblotting with anti-PAR (upper panel) followed by anti-PARG (middle) and Anti-PCNA (lower) as controls. […] Anti-PAR (green), Anti-γH2AX (red) and Hoechst 33342 (blue). Scale bar 25 μm.
Immuno-staining and imaging. PC3 cells were grown to 75% confluence in 24-well 25 μm film bottom Eppendorf black cell Imaging plates (0030741005), treated with either DMSO or designated inhibitors for 2 hours, irradiated 7 Gy X-ray and allowed to recover for an hour before fixing with 4% (wt/vol) paraformaldehyde, pH 8.0. All subsequent steps were performed at pH8.0. Cells were washed 6-7 times with PBS, permeabilized 0.5% Triton X-100 in PBS on ice for 20 min, blocked overnight with PBS/5% Goat serum/3% BSA/0.5% Triton X-100. Cells were incubated with primary antibody 1:250 dilution in PBS/5% BSA/0.5% Triton X-100 overnight at 4° C. Following 6× wash with PBS pH 8.0, cells were exposed to fluorescence labelled secondary antibody diluted 1:500 in PBS/5% BSA/0.5% Triton X-100 for 1 hour at room temperature. Following 6-7× PBS washes, cells were fixed again with 4% PFA at room temperature for 20 min. […]

[2] = target: PARG proteins in PC3 cells (Homo sapiens (Human), UniProt Q86W56); test: Cellular thermal shift assay (CETSA), PARG; type: cell-based; details: 10 μM, 2 h
Method: PC3 cells treated with 10 μM JA2131 or DMSO were temperature shocked as described in the Examples and the resulting non-aggregated proteins were analyzed with Anti-PARG or Anti-PCNA antibody. Anti-Histone H3 was used as loading control.
Cellular thermal shift assay (CETSA). CETSA was performed as described in Molina et al., 2013. Briefly, PC3 cells were treated with 10 μM JA2131 or an equivalent volume of DMSO for 2 h, washed three times with PBS and extracted for total cell lysate. 10% glycerol was added to the samples before subjecting to heat. Gradient thermal cycler (C1000 Touch, Bio-Rad) was used to heat samples at 42, 57, 66, 72, 77 and 85° C. for 3 min and chilled on ice for 5 min. Then, samples were centrifuged at 14,000 rpm for 20 min at 4° C. Supernatants were carefully removed and analyzed by Western blotting analysis.

[3] = system: PARP inhibitor resistant SUM149PT cells; test: PAR and γH2AX high content imaging in PARPi resistant cells; type: cell-based, human; details: 10 μM, 2 hours, 3 Gy IR; four PARPi resistant clones and wild type
Method: PARPi resistant SUM149PT cells clone 6, 10, 11, 18 together with the wild type (WT) were treated with 10 μM JA2131 for 2 hours, irradiated 3Gy ionizing radiation and then fixed, immunofluorescence labelled for PAR and γH2AX. High content imaging showing specific accumulation of PAR and DNA damage induction observed with γH2AX signal in cells treated with PARGi. (Right) Immunoblotting of total cell-lysates of PARP1i resistant SUM149PT cells showing no change in the PARG (upper panel) and p53 (middle panel) protein expression level. Anti-actin was used as loading control (bottom panel).
PARG was evaluated as a therapeutic option for patients who become PARP1 inhibitor resistant. PARP1 inhibitor resistant SUM149PT triple negative breast cancer cell-lines were generated with 100 nM talazoparib for 5 constitutive days and then with 15-50 nM talazoparib until resistant cells grew into clones. The resulting resistant cell clones were propagated and expanded to generate PARP inhibitor resistant SUM149PT derivative cells that no longer responded to PARP1i treatment. It was then investigated whether the PARP resistant breast cancer cells would respond to the PARG inhibitors. Four PARPi resistant SUM149PT cell clones together with wild type cells were treated with JA2131. PAR accumulation and γH2AX foci formation were analyzed by high content imaging (FIG. 21).

[4] = system: HeLa cells; test: DNA fiber assay, replication fork progression; type: cell-based; details: 10 μM, 2 hrs pretreatment
Method: DNA fiber assay. DNA fiber assay was conducted as described previously (Castillo et al. 2014). Briefly, cells pretreated with JA2131 (10 μM) or DMSO for 2 hrs were labeled with 100 μM CldU for 30 min and exposed to 250 μM IdU (with or without 0.4 mM hydroxyurea treatment) for another 30 min or 3 hrs. After labeling and treatment, cells were lysed and DNA fibers stretched onto glass slides. Immunofluorescence was carried out using α-IdU/α-BrdU (BD Biosciences) and α-CldU/α-BrdU (Abcam) and secondary antibodies, including Alexa Fluor 488 (green) and Alexa Fluor 555 (Invitrogen). Images were taken using a Nikon 80 microscope and analyzed using ImageJ software. Statistics were calculated using Prism software. 5-Chloro-2′-deoxyuridine (CIdU) and 5-Iodo-2′-deoxyuridine (IdU) were from Sigma.

Sequence of PARG proteins in PC3 cells (Q86W56 whole entry): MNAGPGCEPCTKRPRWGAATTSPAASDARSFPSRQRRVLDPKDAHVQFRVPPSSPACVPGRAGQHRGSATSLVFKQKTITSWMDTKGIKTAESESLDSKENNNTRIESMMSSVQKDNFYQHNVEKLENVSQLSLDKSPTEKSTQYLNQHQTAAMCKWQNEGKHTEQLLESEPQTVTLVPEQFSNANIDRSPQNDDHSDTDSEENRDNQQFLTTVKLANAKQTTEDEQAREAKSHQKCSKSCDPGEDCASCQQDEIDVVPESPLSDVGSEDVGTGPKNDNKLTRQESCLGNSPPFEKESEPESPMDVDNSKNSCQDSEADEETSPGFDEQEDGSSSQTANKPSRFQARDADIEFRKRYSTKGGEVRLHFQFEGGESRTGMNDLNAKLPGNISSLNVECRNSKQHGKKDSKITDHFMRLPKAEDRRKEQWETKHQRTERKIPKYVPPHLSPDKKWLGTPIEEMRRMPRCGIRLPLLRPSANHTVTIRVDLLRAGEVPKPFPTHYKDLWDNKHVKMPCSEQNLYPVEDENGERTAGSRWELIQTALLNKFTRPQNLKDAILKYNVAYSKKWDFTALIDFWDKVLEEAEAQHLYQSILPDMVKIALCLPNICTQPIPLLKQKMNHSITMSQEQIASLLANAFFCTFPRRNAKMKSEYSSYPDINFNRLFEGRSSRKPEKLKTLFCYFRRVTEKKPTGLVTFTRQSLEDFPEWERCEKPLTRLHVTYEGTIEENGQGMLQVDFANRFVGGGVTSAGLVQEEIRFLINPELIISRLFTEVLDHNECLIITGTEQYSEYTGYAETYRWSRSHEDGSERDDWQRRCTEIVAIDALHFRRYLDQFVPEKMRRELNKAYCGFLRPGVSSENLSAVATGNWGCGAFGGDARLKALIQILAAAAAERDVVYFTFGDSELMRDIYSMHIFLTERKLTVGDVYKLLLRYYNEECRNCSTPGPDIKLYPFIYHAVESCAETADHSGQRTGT

Structure (SMILES): O=C1C(Cl)=C(Cl)C(Cl)(Cl)C(Cl)=C1Cl [JA2131]
- cells showing colocalization of PAR and γH2AX foci [1]: at least 50%
- increase in PAR accumulation following IR in comparison to untreated cells [1]: 20 fold
- γH2AX staining and foci formation, PARGi-treated vs control cells [1]: > 10 fold
- thermal stabilization of PARG proteins in cells [2]: 9 °C
- PAR accumulation and γH2AX staining [3]: increased PAR accumulation as well as γH2AX staining
- average IdU tract ([4]; absence of genotoxic stress): 6.0 μm
- average IdU tract length ([4]; low dose of hydroxyurea): 5.0 μm
